Laboratory results as given in ChEMBL document CHEMBL2169754, “Imidazo[1,2-a]pyridines That Directly Interact with Hepatitis C NS4B: Initial Preclinical Characterization” (ACS Med Chem Lett, 2012).

Columns and labels:
Hepatocyte [1] = test: Drug metabolism in human hepatocytes assessed as pendant cyclohexyl oxidation; format: ADME, cell-based
Hepatocyte [2] = test: Drug metabolism in rat hepatocytes assessed as pendant cyclohexyl oxidation; format: ADME, cell-based
[3] = Solubility of the compound; format: physicochemical
Hepatitis C virus [4] = test: Antiviral activity against wild type HCV genotype 1a infected in human HuH7 cells after 48 hrs by luciferase reporter gene assay; format: functional, organism-based, Hepacivirus hominis; settings: subtype 1a, Huh-7, 48 h
Hepatitis C virus [5] = test: Antiviral activity against wild type HCV genotype 1b infected in human HuH7 cells after 48 hrs by luciferase reporter gene assay; format: functional, organism-based, Hepacivirus hominis; settings: Huh-7, 48 h
Hepatitis C virus [6] = test: Displacement of [3H]-3-(1-(3-chloro-6-isopropyl-8-(trifluoromethyl)imidazo[1,2-a]pyridine-2-carbonyl)piperidin-4-yl)oxazolidin-2-one from HCV genotype 1b His6-tagged NS4B expressed in baculovirus infected Sf9 cells after overnight incubation; set-up: species or system Hepatitis C virus subtype 1b
[7] = AUC (0 to 24 hrs) in Sprague-Dawley rat at 5 mg/kg, po; format: ADME, organism-based; set-up: time < 24 hr, dose 5 mg/kg, route oral; settings: plasma
[8] = Oral bioavailability in Sprague-Dawley rat at 5 mg/kg; format: ADME, organism-based; settings: in vivo
[9] = Half life in Sprague-Dawley rat at 5 mg/kg, po; format: ADME, organism-based; set-up: dose 5 mg/kg, route oral; settings: in vivo
[10] = Clearance in Sprague-Dawley rat at 1 mg/kg, iv; format: ADME, organism-based; set-up: dose 1 mg/kg, route intravenous; settings: in vivo
[11] = Volume of distribution at steady state in Sprague-Dawley rat at 1 mg/kg, iv; format: ADME, organism-based; set-up: dose 1 mg/kg, route intravenous; settings: in vivo, read-out: Vdss

Compound	Drug metabolism (Hepatocyte [1])	Drug metabolism (Hepatocyte [2])	solubility [3] [µM]	EC50 (Hepatitis C virus [4]) [nM]	EC50 (Hepatitis C virus [5]) [nM]	IC50 (Hepatitis C virus [6]) [nM]	AUC(0-t) at 24 h [7] [ng·h/mL]	bioavailability [8] [%]	half-life [9] [h]	clearance [10] [mL/min/kg]	Vd [11] [L/kg]
[3H]CC([3H])(C)c1cc(C(F)(F)F)c2nc(C(=O)N3CCC(N4CCOC4=O)CC3)c(Cl)n2c1 (configuration not stated)						30					
O=C(c1nc2c(C(F)(F)F)cc(-c3ccoc3)cn2c1Cl)N1CCC(c2ccccc2F)C1 (racemic)			< 15	680	78	5.4					
O=C(c1nc2c(C(F)(F)F)cc(-c3ccoc3)cn2c1Cl)N1CCC(c2cccs2)CC1				220	110	5.3					
O=C(c1nc2c(C(F)(F)F)cc(-c3ccoc3)cn2c1Cl)N1CCC(c2cccs2)C1 (racemic)			< 15	770	67	12					
O=C(c1nc2c(C(F)(F)F)cc(-c3ccoc3)cn2c1Cl)N1CCN(c2ccccc2)CC1				450	1600	20					

Second part, the compound after the results:

Drug metabolism (Hepatocyte [1])	Drug metabolism (Hepatocyte [2])	solubility [3] [µM]	EC50 (Hepatitis C virus [4]) [nM]	EC50 (Hepatitis C virus [5]) [nM]	IC50 (Hepatitis C virus [6]) [nM]	AUC(0-t) at 24 h [7] [ng·h/mL]	bioavailability [8] [%]	half-life [9] [h]	clearance [10] [mL/min/kg]	Vd [11] [L/kg]	Compound
Active	Active	> 500	11	3.5	5.6						O=C(c1nc2c(C(F)(F)F)cc(-c3ccoc3)cn2c1Cl)N1CCN(C2CCCCC2)C(=O)C1
		> 500	0.9	9.7	43						O=C(c1nc2c(C(F)(F)F)cc(-c3ccoc3)cn2c1Cl)N1CCN([C@H]2CC[C@H](O)CC2)C(=O)C1
		> 500	20	51	35	1100	60	3	46	3.1	O=C(c1nc2c(C(F)(F)F)cc(-c3ccoc3)cn2c1Cl)N1CCC(N2C(=O)COC2=O)CC1
		> 500	150	300	250						O=C(c1nc2c(C(F)(F)F)cc(-c3ccoc3)cn2c1Cl)N1CCN([C@H]2CC[C@@H](O)CC2)C(=O)C1
		> 500	> 50000	> 50000	> 50000						O=C(c1nc2c(C(F)(F)F)cc(-c3ccoc3)cn2c1Cl)N1CCC(N2CCCC2)CC1
